What all share (experiment): TGFα-shedding assay-based GPCR screening with chimeric Gα subunit proteins
Format in all cases: cell-based

For assay [1], the target named is T1, 348 GPCRs (Homo sapiens, UniProt Q9UNW8).
T1 construct: expressed in transfected cells; host or cells: HEK293A
T1 sequence (Q9UNW8 1-380): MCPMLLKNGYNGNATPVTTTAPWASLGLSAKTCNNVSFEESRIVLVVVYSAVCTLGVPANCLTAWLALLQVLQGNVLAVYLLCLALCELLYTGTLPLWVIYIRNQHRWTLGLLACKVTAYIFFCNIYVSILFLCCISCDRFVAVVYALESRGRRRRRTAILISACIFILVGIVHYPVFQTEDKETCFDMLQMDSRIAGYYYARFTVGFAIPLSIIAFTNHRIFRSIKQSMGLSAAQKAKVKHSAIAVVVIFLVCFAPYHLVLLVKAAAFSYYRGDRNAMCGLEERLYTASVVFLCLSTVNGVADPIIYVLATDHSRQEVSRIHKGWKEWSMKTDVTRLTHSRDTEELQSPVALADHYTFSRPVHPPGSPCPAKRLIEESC
To be noted: G2A (GPR132); 10µM, Favipiravir 100μM.

The target of assay [2] is T2, 348 GPCRs (Homo sapiens, UniProt O95800).
T2 construct: expressed in transfected cells; host or cells: HEK293A
To be noted: 10µM, Favipiravir 100μM.

The target of assay [3] is T3, 348 GPCRs (Homo sapiens, UniProt Q8IWK6).
T3 construct: expressed in transfected cells; host or cells: HEK293A
T3 sequence (Q8IWK6 34-1321): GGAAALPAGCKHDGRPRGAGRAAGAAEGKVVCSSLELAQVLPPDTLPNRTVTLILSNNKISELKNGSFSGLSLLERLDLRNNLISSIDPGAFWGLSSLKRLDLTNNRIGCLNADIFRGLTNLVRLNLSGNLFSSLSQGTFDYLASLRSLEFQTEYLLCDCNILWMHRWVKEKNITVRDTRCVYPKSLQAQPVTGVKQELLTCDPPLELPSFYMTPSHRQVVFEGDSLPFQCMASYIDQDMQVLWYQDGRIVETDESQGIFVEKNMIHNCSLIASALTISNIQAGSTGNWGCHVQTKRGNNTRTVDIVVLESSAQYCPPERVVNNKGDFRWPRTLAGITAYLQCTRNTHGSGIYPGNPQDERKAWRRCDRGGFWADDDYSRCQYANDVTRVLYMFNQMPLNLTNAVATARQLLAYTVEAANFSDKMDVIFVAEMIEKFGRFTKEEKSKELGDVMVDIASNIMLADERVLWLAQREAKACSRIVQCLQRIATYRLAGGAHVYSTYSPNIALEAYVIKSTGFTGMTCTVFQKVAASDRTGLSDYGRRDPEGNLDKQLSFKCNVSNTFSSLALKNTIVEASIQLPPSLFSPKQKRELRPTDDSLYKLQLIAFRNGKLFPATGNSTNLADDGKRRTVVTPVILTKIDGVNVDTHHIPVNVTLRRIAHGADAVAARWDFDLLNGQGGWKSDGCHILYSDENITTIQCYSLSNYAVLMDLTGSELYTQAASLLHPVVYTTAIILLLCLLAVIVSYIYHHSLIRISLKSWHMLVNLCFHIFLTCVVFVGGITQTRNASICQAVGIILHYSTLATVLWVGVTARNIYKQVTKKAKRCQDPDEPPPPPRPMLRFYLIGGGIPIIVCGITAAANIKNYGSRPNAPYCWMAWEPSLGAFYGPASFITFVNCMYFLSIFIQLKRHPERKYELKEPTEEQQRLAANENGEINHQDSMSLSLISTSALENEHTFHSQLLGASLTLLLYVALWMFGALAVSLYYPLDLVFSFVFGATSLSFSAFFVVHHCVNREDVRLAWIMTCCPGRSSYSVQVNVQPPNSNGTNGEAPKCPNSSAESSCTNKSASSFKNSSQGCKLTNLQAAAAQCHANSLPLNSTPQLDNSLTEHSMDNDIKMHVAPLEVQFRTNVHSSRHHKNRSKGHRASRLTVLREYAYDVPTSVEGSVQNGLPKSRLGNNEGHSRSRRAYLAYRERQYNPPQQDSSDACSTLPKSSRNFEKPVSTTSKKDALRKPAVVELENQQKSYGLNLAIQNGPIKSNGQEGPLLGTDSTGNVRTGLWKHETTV
As to conditions: 10µM, Favipiravir 100μM.

Assay [4] concerns the target T4, 348 GPCRs (Homo sapiens, UniProt Q13324).
T4 construct: expressed in transfected cells; host or cells: HEK293A
T4 sequence (Q13324 1-411): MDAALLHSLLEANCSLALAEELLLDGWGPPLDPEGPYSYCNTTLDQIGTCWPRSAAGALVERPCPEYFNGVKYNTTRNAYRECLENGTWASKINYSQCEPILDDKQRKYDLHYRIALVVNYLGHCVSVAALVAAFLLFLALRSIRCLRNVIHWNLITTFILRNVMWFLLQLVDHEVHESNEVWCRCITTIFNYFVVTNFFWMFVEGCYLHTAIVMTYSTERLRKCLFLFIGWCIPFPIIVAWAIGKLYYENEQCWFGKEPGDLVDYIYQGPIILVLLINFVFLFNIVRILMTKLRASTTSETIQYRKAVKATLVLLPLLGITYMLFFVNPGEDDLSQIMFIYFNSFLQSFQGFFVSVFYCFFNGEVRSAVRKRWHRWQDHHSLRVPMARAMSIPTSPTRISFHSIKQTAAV

Assay [5] addresses T5, 348 GPCRs (Homo sapiens, UniProt P30968).
T5 construct: expressed in transfected cells; host or cells: HEK293A
T5 sequence (P30968 1-328): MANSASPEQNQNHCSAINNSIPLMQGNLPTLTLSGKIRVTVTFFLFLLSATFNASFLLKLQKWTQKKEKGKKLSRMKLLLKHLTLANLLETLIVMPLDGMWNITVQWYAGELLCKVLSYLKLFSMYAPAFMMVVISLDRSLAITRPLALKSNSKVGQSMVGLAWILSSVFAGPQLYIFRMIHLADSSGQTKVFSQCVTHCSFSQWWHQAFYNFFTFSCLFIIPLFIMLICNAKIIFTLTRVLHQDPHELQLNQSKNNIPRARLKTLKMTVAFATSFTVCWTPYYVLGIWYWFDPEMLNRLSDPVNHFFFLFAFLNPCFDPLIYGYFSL
To be noted: 10µM, Favipiravir 100μM.

Setting [6] is: GPR75 (G protein-coupled receptor 75), read-out: % GPCR activation compared to TPA.
Where [7] appears, read: GPR125 (Adhesion G Protein-Coupled Receptor A2 (ADGRA3)), read-out: % GPCR activation compared to TPA.
Where [8] appears, read: GPCR CRHR2 (corticotropin releasing hormone receptor 2), read-out: % GPCR activation compared to TPA.
The mark [9] stands for this setting: GNRHR (gonadotropin releasing hormone receptor), read-out: % GPCR activation compared to TPA.
[10] abbreviates: read-out: % GPCR activation compared to TPA, GPR75 (G protein-coupled receptor 75).
Setting [11] is: read-out: % GPCR activation compared to TPA, GPR125 (Adhesion G Protein-Coupled Receptor A2 (ADGRA3)).
Setting [12] is: read-out: % GPCR activation compared to TPA, GPCR CRHR2 (corticotropin releasing hormone receptor 2).
Where [13] appears, read: read-out: % GPCR activation compared to TPA, GNRHR (gonadotropin releasing hormone receptor).

Where two headings read alike, the source gives them in different places.

T2 sequence (O95800 whole entry): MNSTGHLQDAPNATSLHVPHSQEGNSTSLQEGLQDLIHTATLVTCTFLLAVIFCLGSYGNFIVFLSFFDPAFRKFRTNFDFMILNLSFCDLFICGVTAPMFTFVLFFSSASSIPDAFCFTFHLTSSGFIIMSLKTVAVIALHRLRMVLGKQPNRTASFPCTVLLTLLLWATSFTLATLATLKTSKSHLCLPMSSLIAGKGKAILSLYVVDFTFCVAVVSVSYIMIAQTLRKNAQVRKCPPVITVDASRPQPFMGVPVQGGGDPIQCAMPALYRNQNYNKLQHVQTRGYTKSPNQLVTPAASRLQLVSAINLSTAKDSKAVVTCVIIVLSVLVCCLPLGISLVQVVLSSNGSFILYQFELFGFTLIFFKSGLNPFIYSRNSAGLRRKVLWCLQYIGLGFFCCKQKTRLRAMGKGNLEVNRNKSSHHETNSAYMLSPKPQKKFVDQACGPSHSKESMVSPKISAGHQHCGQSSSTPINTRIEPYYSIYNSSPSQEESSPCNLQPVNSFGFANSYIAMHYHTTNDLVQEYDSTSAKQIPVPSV

As for `CC(C)C(=O)OC[C@H]1O[C@@H](n2ccc(NO)nc2=O)[C@H](O)[C@@H]1O` [molnupiravir], on 348 GPCRs [1], the “% GPCR activation compared to TPA” value is recorded as -1.8016%. Further, the activation at 10 µM is -9.47% on 348 GPCRs [2] (setting [6]), -0.998% on 348 GPCRs [3] (setting [7]), -0.005% at 348 GPCRs [4] (setting [8]) and -1.32% at 348 GPCRs [5] (setting [9]).

For `CC(C)OC(=O)[C@H](C)N[P@](=O)(OC[C@H]1O[C@@H](n2ccc(=O)[nH]c2=O)[C@](C)(F)[C@@H]1O)Oc1ccccc1` [sofosbuvir], the “% GPCR activation compared to TPA” value at 348 GPCRs [1] was -1.375%. Further, the activation at 10 µM at 348 GPCRs [2] (setting [10]) was -12.7%; on 348 GPCRs [3] (setting [11]), 0.926%; at 348 GPCRs [4] (setting [12]) it was 2.1%; on 348 GPCRs [5] (setting [13]), -0.976%.

As for `N#C[C@@]1(c2ccc3c(N)ncnn23)O[C@H](CO)[C@@H](O)[C@H]1O` [GS441524], the “% GPCR activation compared to TPA” value at 348 GPCRs [1] is reported as -8.135%. For the same compound, the activation at 10 µM is 2.27% on 348 GPCRs [2] (setting [6]), -0.689% at 348 GPCRs [3] (setting [7]), 0.656% on 348 GPCRs [4] (setting [8]) and -3.48% on 348 GPCRs [5] (setting [9]).

Turning to `NC(=O)c1nc(F)cnc1O` [favipiravir, 6-fluoro-3-hydroxy-2-pyrazinecarboxamide], the “% GPCR activation compared to TPA” value on 348 GPCRs [1] came to 7.4%. The activation at 10 µM at 348 GPCRs [2] (setting [6]) is 6.14%; on 348 GPCRs [3] (setting [7]) it was -1.96%; at 348 GPCRs [5] (setting [9]) it was -1.3%. Further, the activation at 100 µM at 348 GPCRs [4] (GPCR CRHR2 (corticotropin releasing hormone receptor 2), 100μM, read-out: % GPCR activation compared to TPA) is -0.529%.

For `CCC(CC)COC(=O)[C@H](C)N[P@](=O)(OC[C@H]1O[C@@](C#N)(c2ccc3c(N)ncnn23)[C@H](O)[C@@H]1O)Oc1ccccc1` [remdesivir], the “% GPCR activation compared to TPA” value at 348 GPCRs [1] was 10.99%. Besides, the activation at 10 µM on 348 GPCRs [2] (setting [10]) was 4.18%; on 348 GPCRs [3] (setting [11]), -0.226%; at 348 GPCRs [4] (setting [12]), 1.58%; on 348 GPCRs [5] (setting [13]) it was -0.876%.

(Values after article PMC10175918 (Communications Biology, 2023).)
